Target: human APJ receptor (Homo sapiens (Human), UniProt P35414)
Assay: [35S]GTPγS binding assay on membranes from CHO cells stably expressing human APJ receptor
Format: biochemical
Settings: membranes of CHO cells stably expressing human APJ receptor, read-out: Activity hAPJ SPA EC50 IP
Outline: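 Agonist EC50 values come from non-linear regression of mean data from several independent runs. Membranes of CHO cells stably expressing human APJ were incubated 90 min at room temperature with [35S]GTPγS in buffer with optimized GDP, MgCl2 and NaCl, then read on a microplate imager.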

Chain of human APJ receptor (P35414 whole entry): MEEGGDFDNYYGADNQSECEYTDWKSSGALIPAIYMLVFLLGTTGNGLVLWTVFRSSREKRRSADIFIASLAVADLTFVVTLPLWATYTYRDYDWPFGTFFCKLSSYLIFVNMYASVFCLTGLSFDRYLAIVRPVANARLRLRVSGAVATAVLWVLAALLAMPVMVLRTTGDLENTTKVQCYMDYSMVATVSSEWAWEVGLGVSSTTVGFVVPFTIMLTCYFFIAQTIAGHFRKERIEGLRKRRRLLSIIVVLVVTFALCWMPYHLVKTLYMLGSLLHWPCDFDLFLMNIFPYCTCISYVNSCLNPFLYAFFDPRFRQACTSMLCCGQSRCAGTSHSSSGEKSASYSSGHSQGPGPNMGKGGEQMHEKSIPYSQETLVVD

Row | Structure (SMILES) | EC50 [nM]
1 | COc1cccc(-c2nnc(NS(=O)(=O)[C@@H](C)[C@H](OC)c3ncc(Cl)cn3)n2[C@H](C)c2cnn(C)c2)n1 (single isomer, unassigned) [Example 339.0, (1R,2S)-1-(5-chloropyrimidin-2-yl)-1-methoxy-N-(5-(6-methoxypyridin-2-yl)-4-((R)-1-(1-methyl-1H-pyrazol-4-yl)ethyl)-4H-1,2,4-triazol-3-yl)propane-2-sulfonamide or (1R,2S)-1-(5-chloropyrimidin-2-yl)-1-methoxy-N-(5-(6-methoxypyridin-2-yl)-4-((S)-1-(1-methyl-1H-pyrazol-4-yl)ethyl)-4H-1,2,4-triazol-3-yl)propane-2-sulfonamide] | 3.1
2 | COc1cccc(-c2nnc(NS(=O)(=O)[C@@H](C)[C@H](OC)c3ncc(Cl)cn3)n2[C@H](C)c2cc(F)cc(F)c2)n1 (single isomer, unassigned) [Example 340.0, (1R,2S)-1-(5-chloropyrimidin-2-yl)-N-(4-((R)-1-(3,5-difluorophenyl)ethyl)-5-(6-methoxypyridin-2-yl)-4H-1,2,4-triazol-3-yl)-1-methoxypropane-2-sulfonamide or (1R,2S)-1-(5-chloropyrimidin-2-yl)-N-(4-((S)-1-(3,5-difluorophenyl)ethyl)-5-(6-methoxypyridin-2-yl)-4H-1,2,4-triazol-3-yl)-1-methoxypropane-2-sulfonamide] | 0.18
3 | COc1cccc(-c2nnc(NS(=O)(=O)[C@@H](C)[C@H](OC)c3ncc(Cl)cn3)n2[C@H](C)c2cc(F)cc(F)c2)n1 (single isomer, unassigned) [Example 341.0, (1R,2S)-1-(5-chloropyrimidin-2-yl)-N-(4-((R)-1-(3,5-difluorophenyl)ethyl)-5-(6-methoxypyridin-2-yl)-4H-1,2,4-triazol-3-yl)-1-methoxypropane-2-sulfonamide or (1R,2S)-1-(5-chloropyrimidin-2-yl)-N-(4-((S)-1-(3,5-difluorophenyl)ethyl)-5-(6-methoxypyridin-2-yl)-4H-1,2,4-triazol-3-yl)-1-methoxypropane-2-sulfonamide] | 0.13
4 | CC[C@H](c1cc(F)cc(F)c1)n1c(NS(=O)(=O)[C@@H](C)[C@H](OC)c2ncc(Cl)cn2)nnc1-c1cccc(OC)n1 (single isomer, unassigned) [Example 342.0, (1R,2S)-1-(5-chloropyrimidin-2-yl)-N-(4-((R)-1-(3,5-difluorophenyl)propyl)-5-(6-methoxypyridin-2-yl)-4H-1,2,4-triazol-3-yl)-1-methoxypropane-2-sulfonamide or (1R,2S)-1-(5-chloropyrimidin-2-yl)-N-(4-((S)-1-(3,5-difluorophenyl)propyl)-5-(6-methoxypyridin-2-yl)-4H-1,2,4-triazol-3-yl)-1-methoxypropane-2-sulfonamide] | 0.05
5 | CC[C@H](c1cc(F)cc(F)c1)n1c(NS(=O)(=O)[C@@H](C)[C@H](OC)c2ncc(Cl)cn2)nnc1-c1cccc(OC)n1 (single isomer, unassigned) [Example 343.0, (1R,2S)-1-(5-chloropyrimidin-2-yl)-N-(4-((R)-1-(3,5-difluorophenyl)propyl)-5-(6-methoxypyridin-2-yl)-4H-1,2,4-triazol-3-yl)-1-methoxypropane-2-sulfonamide or (1R,2S)-1-(5-chloropyrimidin-2-yl)-N-(4-((S)-1-(3,5-difluorophenyl)propyl)-5-(6-methoxypyridin-2-yl)-4H-1,2,4-triazol-3-yl)-1-methoxypropane-2-sulfonamide] | 0.1
6 | COc1cccc(-c2nnc(NS(=O)(=O)[C@@H](C)[C@H](OC)c3ncc(Cl)cn3)n2[C@H](C)c2cscn2)n1 (single isomer, unassigned) [Example 344.0, (1R,2S)-1-(5-chloropyrimidin-2-yl)-1-methoxy-N-(5-(6-methoxypyridin-2-yl)-4-((S)-1-(thiazol-4-yl)ethyl)-4H-1,2,4-triazol-3-yl)propane-2-sulfonamide or (1R,2S)-1-(5-chloropyrimidin-2-yl)-1-methoxy-N-(5-(6-methoxypyridin-2-yl)-4-((R)-1-(thiazol-4-yl)ethyl)-4H-1,2,4-triazol-3-yl)propane-2-sulfonamide] | 7.1

Reference: patent US10689367B2, “Triazole pyridyl compounds as agonists of the APJ receptor” (AMGEN INC., priority 2016, dated 2020)
